Patent US20020019389A1, “Urea derivative useful as an anti-cancer agent and process for preparing same” (priority 2000, published 2002)
In brackets after ≈: the same amount, converted by molar mass. Like-named read-outs stand apart in the source and are kept apart here.

Assays:
Assay type in all cases: cell-based
[1] = test system: A549 (lung cancer) cell line; experiment: Anti-cancer activity in vitro, A549 cell line
Protocol: (§1) The anti-cancer activity and toxicity of the compound according to the present invention were evaluated in vitro using A549 (lung cancer), SUN638 (gastric cancer), HCT116 (rectal cancer), and A431 (ovarian cancer) cell lines. The above four (4) cell lines were purchased from Cancer Research Institute, Seoul National University College of Medicine. […] The experiment was basically carried out according to the process described in Monks, A., et al, Journal of National Cancer Institute. 83: 757-766 (1991) and the results are represented in the following Tables 2 and 3.

[2] = test system: SUN638 (gastric cancer) cell line; experiment: Anti-cancer activity in vitro, SUN638 cell line
Protocol: as §1

[3] = test system: HCT116 (rectal cancer) cell line; experiment: Anti-cancer activity in vitro, HCT116 cell line
Protocol: as §1

[4] = Homo sapiens, A549, read-out: LC50
[5] = Homo sapiens, A549 Cell Line, read-out: GI50
[6] = SUN638 Cell Line, read-out: GI50
[7] = Homo sapiens, HCT-116, read-out: LC50

SMILES	GI50 ([1]; A549 Cell Line) [µg/mL]	LC50 ([1]; A549 Cell Line) [µg/mL]	TGI50 ([1]; A549 Cell Line) [µg/mL]	GI50 ([2]; SUN638 Cell Line) [µg/mL]	LC50 ([2]; SUN638 Cell Line) [µg/mL]	TGI50 ([2]; SUN638 Cell Line) [µg/mL]	GI50 ([3]; HCT116 Cell Line) [µg/mL]	LC50 ([3]; HCT116 Cell Line) [µg/mL]	TGI50 ([3]; HCT116 Cell Line) [µg/mL]	LC50 [1, 4] [µg/mL]	GI50 [1, 5] [µg/mL]	GI50 [2, 6] [µg/mL]	LC50 ([2]; read-out: LC50) [µg/mL]	GI50 ([3]; Homo sapiens, HCT-116) [µg/mL]	LC50 [3, 7] [µg/mL]	GI50 ([1]; Homo sapiens, A549) [µg/mL]	GI50 [2] [µg/mL]
COc1cc2c(cc1OC)C(c1ccccc1)CN(C(=O)Nc1cc(C)c(C)nc1OC)CC2 (stereo not drawn) [Compound 1, 3-[N-(5,6-dimethyl-2-methoxypyridin-3-yl)aminocarbonyl]-7,8-dimethoxy-1-phenyl-2,3,4,5-tetrahydro-3H-benzazepine]	1.21 (≈ 2.62 µM)	>100	39.81	1.99 (≈ 4.31 µM)	>100	7.07	–	–	–	–	–	–	–	–	–	–	–
COc1cc2c(cc1OC)[C@@H](c1ccccc1)CN(C(=O)Nc1nc3ccccc3nc1OC)CC2 [Compound 4, 3-[N-(2-methoxyquinoxalin-3-yl)aminocarbonyl]-(R)-7,8-dimethoxy-1-phenyl-2,3,4,5-tetrahydro-3H-benzazepine]	1.20 (≈ 2.48 µM)	>100	100	1.86 (≈ 3.84 µM)	>100	6.76	0.12 (≈ 0.248 µM)	>100	3.54	–	–	–	–	–	–	–	–
COc1cc2c(cc1OC)C(c1ccc(F)cc1)CN(C(=O)Nc1nc3ccccc3nc1OC)CC2 (stereo not drawn) [Compound 5, 3-[N-(2-methoxyquinoxalin-3-yl)aminocarbonyl]-7,8-dimethoxy-1-(4-fluoro)phenyl-2,3,4,5-tetrahydro-3H-benzazepine]	2.08 (≈ 4.14 µM)	>100	46.98	1.69 (≈ 3.36 µM)	>100	6.16	0.15 (≈ 0.298 µM)	>100	4.07	–	–	–	–	–	–	–	–
COc1cc2c(cc1OC)C(c1ccc(Cl)cc1)CN(C(=O)Nc1nc3ccccc3nc1OC)CC2 (stereo not drawn) [Compound 6, 3-[N-(2-methoxyquinoxalin-3-yl)aminocarbonyl]-7,8-dimethoxy-1-(4-chloro)phenyl-2,3,4,5-tetrahydro-3H-benzazepine]	2.69 (≈ 5.18 µM)	>100	100	1.90 (≈ 3.66 µM)	>100	6.91	0.39 (≈ 0.751 µM)	>100	3.31	–	–	–	–	–	–	–	–
CCOc1nc2ccccc2nc1NC(=O)N1CCc2cc(OC)c(OC)cc2C(c2ccccc2)C1 (stereo not drawn) [Compound 7, 3-[N-(2-ethoxyquinoxalin-3-yl)aminocarbonyl]-7,8-dimethoxy-1-phenyl-2,3,4,5-tetrahydro-3H-benzazepine]	3.38 (≈ 6.78 µM)	>100	100	2.45 (≈ 4.91 µM)	>100	7.41	0.15 (≈ 0.301 µM)	>100	4.08	–	–	–	–	–	–	–	–
COc1nc2ccccc2nc1NC(=O)N1CCC(c2ccccc2)(c2ccccc2)CC1 [Compound 16, 1-[N-(2-methoxyquinoxalin-3-yl)aminocarbonyl]-4,4-diphenyl-piperidine]	–	–	–	–	–	–	–	–	–	> 100	1.02 (≈ 2.33 µM)	0.15 (≈ 0.342 µM)	> 100	–	–	–	–
O=C(NC(c1ccccc1)c1ccccc1)N1CCC(c2ccccc2)(c2ccccc2)CC1 [Compound 17, 1-[N-(diphenylmethyl)aminocarbonyl]-4,4-diphenyl-piperidine]	–	–	–	–	–	–	–	–	–	> 100	6.45 (≈ 14.4 µM)	0.63 (≈ 1.41 µM)	> 100	–	–	–	–
COc1ccc(C#N)cc1NC(=O)N1CCN(c2cc(C)cc(C)c2)CC1 [Compound 26, 1-[(2-methoxy-5-cyanophenyl)aminocarbonyl]-4-(3,5-dimethylphenyl)piperazine]	–	–	–	–	–	–	–	–	–	> 100	1.36 (≈ 3.73 µM)	2.51 (≈ 6.89 µM)	> 100	–	–	–	–
Cc1cc(C)cc(N2CCN(C(=O)Nc3nc4ccccc4[n+]([O-])n3)CC2)c1 [Compound 28, 1-[(benzo-1,2,4-triazin-1-N-oxide-3-yl)aminocarbonyl]-4-(3,5-dimethylphenyl)piperazine]	1.31 (≈ 3.46 µM)	>100	34.67	1.99 (≈ 5.26 µM)	>100	7.07	–	–	–	–	–	–	–	–	–	–	–
C=CCN(CC=C)c1nc(N(CC=C)CC=C)nc(N2CCN(C(=O)Nc3nc4ccccc4nc3OC)CC2)n1 [Compound 53]	2.75 (≈ 4.94 µM)	>100	8.91	2.18 (≈ 3.92 µM)	>100	5.49	–	–	–	–	–	–	–	–	–	–	–
COc1cc(OC)cc(N2CCN(C(=O)n3ccnc3)CC2)c1 [Compound 58, 1-[(1H-imidazol-1-yl)carbonyl]-4-(3,5-dimethoxyphenyl) piperazine]	–	–	–	–	–	–	–	–	–	> 100	–	–	> 100	0.66 (≈ 2.09 µM)	> 100	2.75 (≈ 8.69 µM)	2.39 (≈ 7.55 µM)
C=C(C)CN(CC)c1nc(N2CCN(C(=O)n3ccnc3)CC2)nc(N(CC)CC(=C)C)n1 [Compound 63, 1-[(1H-imidazol-1-yl)carbonyl]-4-{4,6-bis-[ethyl-(2-methylallyl)amino]-[1,3,5]triazin-2-yl}piperazine]	–	–	–	–	–	–	–	–	–	> 100	–	–	> 100	1.77 (≈ 3.9 µM)	> 100	2.23 (≈ 4.92 µM)	1.81 (≈ 3.99 µM)
COc1cc2c(cc1OC)[C@@H](c1ccccc1)CN(C(=O)n1ccnc1)CC2 [Compound 68, 3-[(1H-imidazol-1-yl)carbonyl]-(R)-7,8-dimethoxy-1-phenyl-2,3,4,5-tetrahydro-3H-benzazepine]	0.23 (≈ 0.609 µM)	>100	100	0.22 (≈ 0.583 µM)	>100	97.72	0.24 (≈ 0.636 µM)	>100	10.96	–	–	–	–	–	–	–	–
COc1cc2c(cc1OC)[C@H](c1ccccc1)CN(C(=O)n1ccnc1)CC2 [Compound 69, 3-[(1H-imidazol-1-yl)carbonyl]-(S)-7,8-dimethoxy-1-phenyl-2,3,4,5-tetrahydro-3H-benzazepine]	0.36 (≈ 0.954 µM)	>100	97.72	0.13 (≈ 0.344 µM)	>100	3.63	0.13 (≈ 0.344 µM)	>100	10.71	–	–	–	–	–	–	–	–
COc1cc2c(cc1OC)C(c1ccc(Cl)cc1)CN(C(=O)n1ccnc1)CC2 (stereo not drawn) [Compound 71, 3-[(1H-imidazol-1-yl)carbonyl]-7,8-dimethoxy-1-(4-chloro)phenyl-2,3,4,5-tetrahydro-3H-benzazepine]	4.78 (≈ 11.6 µM)	>100	93.32	2.63 (≈ 6.39 µM)	>100	9.12	2.69 (≈ 6.53 µM)	>100	14.12	–	–	–	–	–	–	–	–
COc1ccc2c(c1)C(c1ccccc1)CN(C(=O)n1ccnc1)CC2 (stereo not drawn) [Compound 72, 3-[(1H-imidazol-1-yl)carbonyl]-8-methoxy-1-phenyl-2,3,4,5-tetrahydro-3H-benzazepine]	2.23 (≈ 6.42 µM)	>100	100	1.44 (≈ 4.14 µM)	>100	7.24	0.10 (≈ 0.288 µM)	>100	9.42	–	–	–	–	–	–	–	–
COc1ccc2c(c1)C(c1ccc(Cl)cc1)CN(C(=O)n1ccnc1)CC2 (stereo not drawn) [Compound 74, 3-[(1H-imidazol-1-yl)carbonyl]-8-methoxy-1-(4-chloro)phenyl-2,3,4,5-tetrahydro-3H-benzazepine]	–	–	–	–	–	–	1.44 (≈ 3.77 µM)	>100	7.24	–	–	–	–	–	–	–	–
O=C(N1CCC(c2ccccc2)(c2ccccc2)CC1)n1ccnc1 [Compound 80, 1-[(1H-imidazol-1-yl)carbonyl]-4,4-diphenyl-piperidine]	–	–	–	–	–	–	–	–	–	> 100	–	–	> 100	1.47 (≈ 4.44 µM)	> 100	1.38 (≈ 4.16 µM)	1.62 (≈ 4.89 µM)
